We go through 7 compounds from US6638928B1, “Treatment of irritable bowel syndrome and nonulcer dyspepsia with substituted 2,3-benzodiazepines” (Vela Pharmaceuticals, Inc., priority 2002, dated 2003).

In assay [1] the test system is colonic propulsive motility. Put plainly: Glass bead test of colonic propulsive motility in mice. Type of assay: in vivo, mouse. The conditions noted are these: 32 mg/kg IP; for Expulsion Time Mean ± SEM: 3 mm glass bead inserted 30 minutes after dosing, cut-off time 30 minutes, 10 per group; for Expulsion Time Mean ± SEM / inhibition at 32 mg/kg: female Swiss Webster mice; for inhibition at 32 mg/kg: Mus musculus, inhibition of bead expulsion vs vehicle; for inhibition of colonic propulsion (in words): summary of Table 1 data, mice. The source says: This model is predictive of agents that may be used to treat the alterations in propulsion of intestinal contents that occur in individuals diagnosed with IBS. The model is very sensitive to test compounds producing inhibitory effects on propulsive motor activity, but is not sensitive to test articles increasing colonic propulsive motility. The model provides a direct measure of colonic propulsion. Thus, a test compound that slows the rate at which a glass bead is expelled, is predicted to have utility in the treatment of IBS,
This test is also used to evaluate test articles with potential to produce constipation, antidiarrheal activity, or have selective visceral anti-nociceptive activity in addition to being used as an animal model for irritable bowel syndrome.
For the present example, seventy test animals (female, 6 week old Swiss Webster mice, 18-30 g) were divided into 7 groups of 10 animals each for administration of six test compounds and vehicle alone as a control.
Each animal was dosed (IP) with either a compound of formula I, one of two related 2,3-benzodiazepines or vehicle alone. Thirty minutes after dosing, a 3 mm glass bead was inserted through the anus to a depth of 2 cm into the distal colon using a glass rod. […] Any test animal that had not expelled the bead within a cut-off time of 30 minutes was sacrificed and the position of the bead in the lumen of the colon was verified.
Such observations included gross evaluation of skin and fur, eyes and mucous membranes, respiratory, circulatory, autonomic and central nervous system, somatomotor activity and behavioral patterns. Particular attention was directed to observation of tremors, convulsions, salivation, diarrhea, sleep and coma. No signs of gross toxicity were observed. Mean and standard error of the mean were calculated for the expulsion times for each group.

The target in assay [2] is peripheral BZ receptors (Homo sapiens, UniProt P30536). The conditions noted are these: cited from earlier work.
For assay [3], the system named is central BZ receptors. The conditions noted are these: cited from earlier work.
Assay [4] concerns aggression in mice. The conditions noted are these: cited from earlier work.
Assay [5] deals with anti-noradrenergic effects. The conditions noted are these: cited from earlier work.
Assay [6] deals with muricide in rats. The conditions noted are these: cited from earlier work.
For assay [7], the system named is narcosis in mice. The conditions noted are these: cited from earlier work.

Sequence of peripheral BZ receptors (P30536 whole entry): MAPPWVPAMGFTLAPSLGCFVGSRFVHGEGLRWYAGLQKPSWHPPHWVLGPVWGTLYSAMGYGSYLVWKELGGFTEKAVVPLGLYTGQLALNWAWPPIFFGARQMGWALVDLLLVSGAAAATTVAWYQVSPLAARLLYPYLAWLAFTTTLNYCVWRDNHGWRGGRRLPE

`CCC1C(C)=NN=C(c2ccc(OC)c(OC)c2)c2cc(O)c(OC)cc21` (racemic) [Compound 2, 1-(3,4-dimethoxyphenyl)-4-methyl-5-ethyl-7-methoxy-8-hydroxy-5H-2,3-benzodiazepine]: in assay [1], the “Expulsion Time Mean ± SEM” value was 17.2 ± 3.5 and testing at 32 mg/kg gave an inhibition of 23%.
Consider `CCC1C(C)=NN=C(c2ccc(OC)c(O)c2)c2cc(OC)c(OC)cc21` (racemic) [Compound 4, 1-(3-hydroxy-4-methoxyphenyl)-4-methyl-5-ethyl-7,8-dimethoxy-5H-2,3-benzodiazepine], for which, in assay [1], the “Expulsion Time Mean ± SEM” value worked out at 20.3 ± 3.5; the inhibition (in general, the relative decrease from the control value, in per cent) at 32 mg/kg was 42%; the “inhibition of colonic propulsion (in words)” value was “substantial inhibition of colonic propulsion”.
As for `CCC1C(C)=NN=C(c2ccc(OC)c(OC)c2)c2cc(OC)c(OC)cc21` (racemic) [tofisopam, 1-(3,4-dimethoxyphenyl)-4-methyl-5-ethyl-7,8-dimethoxy-5H-2,3-benzodiazepine], in assay [2], the “binding to peripheral BZ receptors” value is “binds only weakly”. For the same compound, the “interaction with central BZ receptors” value in assay [3] is reported as “does not interact”.
On to `CCC1C(C)=NN=C(c2ccc(OC)c(OC)c2)c2cc(OC)c(O)cc21` (centres unmarked) [Compound 1, 1-(3,4-dimethoxyphenyl)-4-methyl-5-ethyl-7-hydroxy-8-methoxy-5H-2,3-benzodiazepine], for which, in assay [4], the inhibition of aggression is reported as 0%. In assay [1], the “Expulsion Time Mean ± SEM” value came out at 6.9 ± 3.7 and 32 mg/kg produced 22% inhibition. The anti-noradrenergic effects result in assay [5] is “no effect”. The inhibition of muricide in assay [6] is listed as 20%.
In the case of `CCC1C(C)=NN=C(c2ccc(O)c(OC)c2)c2cc(OC)c(OC)cc21` (centres unmarked) [Compound 3, 1-(3-methoxy-4-hydroxyphenyl)-4-methyl-5-ethyl-7,8-dimethoxy-5H-2,3-benzodiazepine], the inhibition of aggression in assay [4] is reported as 0%. In assay [7], the narcosis-potentiating activity result is “narcosis-potentiating activity”. Moreover, in assay [1], the “Expulsion Time Mean ± SEM” value was 20.0 ± 3.1, the inhibition at 32 mg/kg came out at 40% and the “inhibition of colonic propulsion (in words)” value is “substantial inhibition of colonic propulsion”. Further, the anti-noradrenergic effects entry in assay [5] is “measurable activity”. Also, the inhibition of muricide in assay [6] was 0%.
As to `CCC1C(C)=NN=C(c2ccc(O)c(OC)c2)c2cc(OC)c(O)cc21` (centres unmarked) [Compound 5, 1-(3-methoxy-4-hydroxyphenyl)-4-methyl-5-ethyl-7-hydroxy-8-methoxy-5H-2,3-benzodiazepine, reference compound], in assay [4], the inhibition of aggression was 28.6%. For the same compound, in assay [1], the “Expulsion Time Mean ± SEM” value is listed as 12.0 ± 3.2 and testing at 32 mg/kg gave an inhibition of 0%. The anti-noradrenergic effects entry in assay [5] is listed as “measurable activity”. Also, the inhibition of muricide in assay [6] is 20%.
Take `CCC1C(C)=NN=C(c2ccc(OC)c(O)c2)c2cc(OC)c(O)cc21` (centres unmarked) [Compound 6, 1-(3-hydroxy-4-methoxyphenyl)-4-methyl-5-ethyl-7-hydroxy-8-methoxy-5H-2,3-benzodiazepine, reference compound]: in assay [1], the “Expulsion Time Mean ± SEM” value was 10.7 ± 3.4 and the inhibition at 32 mg/kg stood at 0%.
